Assay results published in patent US20250361210A1, “3,4-DIHYDROQUINOLIN-2(1H)-ONE COMPOUND” (Kissei Pharmaceutical Co., Ltd., priority 2022, published 2025).

Target: T1, human TSHR (Homo sapiens, UniProt P16473)
T1 construct: expressed in transfected cells
Assay: Antagonist activity using TSH-induced cAMP production in human TSHR-stably expressing CHO cells
Assay type: cell-based
Details: human TSH 50 ng/mL
Method: Measurement of Antagonist Activity Using TSH-Induced cAMP Production in Human TSHR-Stably Expressing CHO Cells as an Indicator
The human TSHR gene sequence (reference number NM_000369.2) was inserted into the multicloning site of pcDNA3.1(+). The constructed plasmid vector was introduced into CHO cells using the lipofection method to establish human TSHR-stably expressing CHO cells. The obtained cells were seeded at 5×10^4 cells/well in a 96-well poly-D-lysine-coated plate, and cultured in an F12 culture medium containing 10% FBS, 400 μg/mL of G418, 50 U/mL of penicillin and 50 μg/mL of streptomycin under conditions of 37° C. and 5% CO2 for 1 day. After the culture medium was removed, the cells were washed twice with 100 μL of an assay buffer solution (Hanks' Balanced Salt Solution containing 20 mM HEPES and 1 mM IBMX) per well. 30 μL of a test compound-containing assay buffer solution was added to the well and incubated at room temperature for 15 minutes. Then, 30 μL of an assay buffer solution containing human TSH (final concentration 50 ng/mL, R&D Systems, Inc.) was added, and incubated at 37° C. for 1 hour. The supernatant was removed, a Lysis and Detection Buffer 2 (Cisbio) was added, and the mixture was incubated at room temperature for 1 hour to prepare a cell lysate. According to the instruction manual of a cAMP Gs HiRange kit (Cisbio), the cell lysate, d2-labeled cAMP and anti-cAMP Europium Cryptate labeled antibodies (Cisbio) were reacted in a 384-well white microplate. Then, a fluorescence intensity ratio (measurement wavelength 665 nm/620 nm) was measured using a multi-plate reader (PHERAstar FSX, BMG LABTECH, Japan). The fluorescence intensity ratio of each sample was converted to a cAMP content using a standard curve. The cAMP content was converted as a percentage of the control value to calculate the cAMP production rate. The CAMP production rate was plotted against the test compound concentration using Prism (Graph Pad Software Inc.) to calculate the IC50 value. The IC50 of each test compound is shown in the above tables. In the tables, IC50<0.5 μM: A, 0.5 μM≤IC50<3.0 μM: B, 3.0 μM≤IC50<30 μM: C are shown.

T1 sequence (P16473 21-764): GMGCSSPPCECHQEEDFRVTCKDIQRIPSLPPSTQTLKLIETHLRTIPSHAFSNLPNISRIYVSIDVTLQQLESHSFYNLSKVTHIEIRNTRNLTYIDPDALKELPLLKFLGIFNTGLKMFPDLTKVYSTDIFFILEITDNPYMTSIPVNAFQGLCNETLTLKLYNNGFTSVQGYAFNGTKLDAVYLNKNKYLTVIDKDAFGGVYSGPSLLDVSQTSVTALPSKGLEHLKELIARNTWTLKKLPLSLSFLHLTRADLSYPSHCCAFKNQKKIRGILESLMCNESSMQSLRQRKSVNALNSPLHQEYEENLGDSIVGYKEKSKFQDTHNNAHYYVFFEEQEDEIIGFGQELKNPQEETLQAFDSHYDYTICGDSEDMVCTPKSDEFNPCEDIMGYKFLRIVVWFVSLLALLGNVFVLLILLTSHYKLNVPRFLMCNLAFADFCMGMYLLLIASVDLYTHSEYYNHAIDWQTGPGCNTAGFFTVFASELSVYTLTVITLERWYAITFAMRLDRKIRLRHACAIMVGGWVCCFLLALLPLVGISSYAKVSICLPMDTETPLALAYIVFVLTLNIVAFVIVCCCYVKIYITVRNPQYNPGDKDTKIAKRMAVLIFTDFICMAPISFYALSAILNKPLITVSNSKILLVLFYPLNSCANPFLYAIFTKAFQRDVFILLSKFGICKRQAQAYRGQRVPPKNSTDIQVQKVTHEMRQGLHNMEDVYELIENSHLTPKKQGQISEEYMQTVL

Row | SMILES | IC50 [nM]
1 | CN1C(=O)[C@H](NC(N)=O)Cc2cccc(OC3CCCC3)c21 [Example 42, ((3R)-8-(cyclopentyloxy)-1-methyl-2-oxo-1,2,3,4-tetrahydroquinolin-3-yl)urea] | 500 to 3000
2 | CN1C(=O)[C@H](NC(N)=O)Cc2ccc(F)c(Oc3ccccc3C(F)F)c21 [Example 43, ((3R)-8-(2-(difluoromethyl)phenoxy)-7-fluoro-1-methyl-2-oxo-1,2,3,4-tetrahydroquinolin-3-yl)urea] | 500 to 3000
3 | CN1C(=O)[C@H](NC(N)=O)Cc2ccc(F)c(Oc3cc(F)ccc3Cl)c21 [Example 44, ((3R)-8-(2-chloro-5-fluorophenoxy)-7-fluoro-1-methyl-2-oxo-1,2,3,4-tetrahydroquinolin-3-yl)urea] | < 500
4 | Cc1ccccc1Oc1cccc2c1N(C)C(=O)[C@H](NC(N)=O)C2 [Example 47, ((3R)-1-methyl-8-(2-methylphenoxy)-2-oxo-1,2,3,4-tetrahydroquinolin-3-yl)urea] | < 500
5 | CN1C(=O)[C@H](NC(N)=O)Cc2ccc(C(F)(F)F)c(Oc3ccccc3F)c21 [Example 49, ((3R)-8-(2-fluorophenoxy)-1-methyl-2-oxo-7-(trifluoromethyl)-1,2,3,4-tetrahydroquinolin-3-yl)urea] | < 500
6 | CN1C(=O)[C@H](NC(N)=O)Cc2cccc(Cc3ccccc3Cl)c21 [Example 51, ((3R)-8-((2-chlorophenyl)methyl)-1-methyl-2-oxo-1,2,3,4-tetrahydroquinolin-3-yl)urea] | < 500
7 | CN1C(=O)[C@H](NC(N)=O)Cc2cccc(Cc3ccccc3C(F)(F)F)c21 [Example 53, ((3R)-1-methyl-2-oxo-8-((2-(trifluoromethyl)phenyl)methyl)-1,2,3,4-tetrahydroquinolin-3-yl)urea] | < 500
8 | CN1C(=O)[C@H](NC(N)=O)Cc2cccc(Cc3ccccc3C(F)F)c21 [Example 55, ((3R)-8-((2-(difluoromethyl)phenyl)methyl)-1-methyl-2-oxo-1,2,3,4-tetrahydroquinolin-3-yl)urea] | < 500
9 | CN1C(=O)[C@H](NC(N)=O)Cc2ccc(F)c(Cc3ccccc3C(F)(F)F)c21 [Example 61, ((3R)-7-fluoro-1-methyl-2-oxo-8-((2-(trifluoromethyl)phenyl)methyl)-1,2,3,4-tetrahydroquinolin-3-yl)urea] | < 500
10 | CN1C(=O)[C@H](NC(N)=O)Cc2ccc(Cl)c(Cc3ccccc3Cl)c21 [Example 62, ((3R)-7-chloro-8-((2-chlorophenyl)methyl)-1-methyl-2-oxo-1,2,3,4-tetrahydroquinolin-3-yl)urea] | < 500
11 | CN1C(=O)[C@H](NC(N)=O)Cc2ccc(Cl)c(Oc3cc(F)ccc3F)c21 [Example 69, ((3R)-7-chloro-8-(2,5-difluorophenoxy)-1-methyl-2-oxo-1,2,3,4-tetrahydroquinolin-3-yl)urea] | < 500
12 | CN1C(=O)[C@H](NC(N)=O)Cc2ccc(CO)c(Oc3cc(F)ccc3Cl)c21 [Example 71, ((3R)-8-(2-chloro-5-fluorophenoxy)-7-(hydroxymethyl)-1-methyl-2-oxo-1,2,3,4-tetrahydroquinolin-3-yl)urea] | < 500
13 | CN1C(=O)[C@H](NC(N)=O)Cc2ccc(C(F)F)c(Oc3cc(F)ccc3Cl)c21 [Example 72, ((3R)-8-(2-chloro-5-fluorophenoxy)-7-(difluoromethyl)-1-methyl-2-oxo-1,2,3,4-tetrahydroquinolin-3-yl)urea] | < 500
14 | CN1C(=O)[C@H](NC(N)=O)Cc2ccc(CF)c(Oc3cc(F)ccc3Cl)c21 [Example 73, ((3R)-8-(2-chloro-5-fluorophenoxy)-7-(fluoromethyl)-1-methyl-2-oxo-1,2,3,4-tetrahydroquinolin-3-yl)urea] | < 500
15 | CN1C(=O)[C@H](NC(N)=O)Cc2ccc(C(F)(F)F)c(Oc3cc(F)ccc3Cl)c21 [Example 74, ((3R)-8-(2-chloro-5-fluorophenoxy)-1-methyl-2-oxo-7-(trifluoromethyl)-1,2,3,4-tetrahydroquinolin-3-yl)urea] | < 500
16 | CN1C(=O)[C@H](NC(N)=O)Cc2ccc(C(C)(F)F)c(Oc3cc(F)ccc3Cl)c21 [Example 75, ((3R)-8-(2-chloro-5-fluorophenoxy)-7-(1,1-difluoroethyl)-1-methyl-2-oxo-1,2,3,4-tetrahydroquinolin-3-yl)urea] | < 500
17 | CCc1ccc2c(c1Oc1cc(F)ccc1Cl)N(C)C(=O)[C@H](NC(N)=O)C2 [Example 76, ((3R)-8-(2-chloro-5-fluorophenoxy)-7-ethyl-1-methyl-2-oxo-1,2,3,4-tetrahydroquinolin-3-yl)urea] | < 500
18 | CC(c1ccccc1Cl)c1cccc2c1N(C)C(=O)[C@H](NC(N)=O)C2 (stereo partly drawn) [Example 77, ((3R)-8-(1-(2-chlorophenyl)ethyl)-1-methyl-2-oxo-1,2,3,4-tetrahydroquinolin-3-yl)urea] | < 500

Further lines, results first:

Row | IC50 [nM] | SMILES
19 | < 500 | Cc1ccc2c(c1Oc1ccccc1F)N(C)C(=O)[C@H](NC(N)=O)C2 [Example 45, ((3R)-8-(2-fluorophenoxy)-1,7-dimethyl-2-oxo-1,2,3,4-tetrahydroquinolin-3-yl)urea]
20 | < 500 | Cc1ccc2c(c1Oc1cccc(F)c1)N(C)C(=O)[C@H](NC(N)=O)C2 [Example 46, ((3R)-8-(3-fluorophenoxy)-1,7-dimethyl-2-oxo-1,2,3,4-tetrahydroquinolin-3-yl)urea]
21 | < 500 | Cc1ccc(F)cc1Oc1cccc2c1N(C)C(=O)[C@H](NC(N)=O)C2 [Example 48, ((3R)-8-(5-fluoro-2-methylphenoxy)-1-methyl-2-oxo-1,2,3,4-tetrahydroquinolin-3-yl)urea]
22 | < 500 | Cc1ccc2c(c1Oc1cc(F)ccc1F)N(C)C(=O)[C@H](NC(N)=O)C2 [Example 50, ((3R)-8-(2,5-difluorophenoxy)-1,7-dimethyl-2-oxo-1,2,3,4-tetrahydroquinolin-3-yl)urea]
23 | < 500 | CN1C(=O)[C@H](NC(N)=O)Cc2cccc(Cc3cc(F)ccc3Cl)c21 [Example 52]
24 | < 500 | Cc1ccccc1Cc1cccc2c1N(C)C(=O)[C@H](NC(N)=O)C2 [Example 54, ((3R)-1-methyl-8-((2-methylphenyl)methyl)-2-oxo-1,2,3,4-tetrahydroquinolin-3-yl)urea]
25 | < 500 | CN1C(=O)[C@H](NC(N)=O)Cc2ccc(F)c(Cc3cc(F)ccc3Cl)c21 [Example 56]
26 | < 500 | CN1C(=O)[C@H](NC(N)=O)Cc2ccc(Cl)c(Cc3cc(F)ccc3Cl)c21 [Example 57, ((3R)-7-chloro-8-((2-chloro-5-fluorophenyl)methyl)-1-methyl-2-oxo-1,2,3,4-tetrahydroquinolin-3-yl)urea]
27 | < 500 | Cc1ccc2c(c1Cc1ccccc1Cl)N(C)C(=O)[C@H](NC(N)=O)C2 [Example 58, ((3R)-8-((2-chlorophenyl)methyl)-1,7-dimethyl-2-oxo-1,2,3,4-tetrahydroquinolin-3-yl)urea]
28 | < 500 | Cc1ccc2c(c1Cc1cc(F)ccc1Cl)N(C)C(=O)[C@H](NC(N)=O)C2 [Example 59, ((3R)-8-((2-chloro-5-fluorophenyl)methyl)-1,7-dimethyl-2-oxo-1,2,3,4-tetrahydroquinolin-3-yl)urea]
29 | < 500 | CN1C(=O)[C@H](NC(N)=O)Cc2ccc(F)c(Cc3ccccc3Cl)c21 [Example 60, ((3R)-8-((2-chlorophenyl)methyl)-7-fluoro-1-methyl-2-oxo-1,2,3,4-tetrahydroquinolin-3-yl)urea]
30 | < 500 | Cc1ccccc1Cc1c(F)ccc2c1N(C)C(=O)[C@H](NC(N)=O)C2 [Example 63, ((3R)-7-fluoro-1-methyl-8-((2-methylphenyl)methyl)-2-oxo-1,2,3,4-tetrahydroquinolin-3-yl)urea]
31 | 500 to 3000 | CN1C(=O)[C@H](NC(N)=O)Cc2ccc(Cl)c(Cc3ccccc3F)c21 [Example 64, ((3R)-7-chloro-8-((2-fluorophenyl)methyl)-1-methyl-2-oxo-1,2,3,4-tetrahydroquinolin-3-yl)urea]
32 | 500 to 3000 | CN1C(=O)[C@H](NC(N)=O)Cc2ccc(Cl)c(Cc3cccc(F)c3)c21 [Example 65]
33 | 3000 to 30000 | Cc1ccc2c(c1Cc1cccc(F)c1)N(C)C(=O)[C@H](NC(N)=O)C2 [Example 67]
34 | < 500 | Cc1ccc(F)cc1Cc1cccc2c1N(C)C(=O)[C@H](NC(N)=O)C2 [Example 68, ((3R)-8-((5-fluoro-2-methylphenyl)methyl)-1-methyl-2-oxo-1,2,3,4-tetrahydroquinolin-3-yl)urea]
35 | < 500 | Cc1ccc2c(c1Oc1cc(F)ccc1C(F)F)N(C)C(=O)[C@H](NC(N)=O)C2 [Example 70, ((3R)-8-(2-(difluoromethyl)-5-fluorophenoxy)-1,7-dimethyl-2-oxo-1,2,3,4-tetrahydroquinolin-3-yl)urea]
